US20250180581A1, “COMPOSITIONS AND METHODS FOR CHARACTERIZING AND TREATING PSYCHIATRIC ILLNESS” (Trustees of Tufts College, priority 2023, published 2025)

Legend:
[1] = test system: mice subjected to chronic unpredictable stress (CUS); test: Chronic unpredictable stress (CUS) in mice, behavioral state (learned helplessness, social interaction, anhedonia); format: in vivo; conditions: exogenous allopregnanolone treatment after 3 weeks CUS; FIGS. 3B-3D
Text: In each graph, from left to right, the first bar is control, second bar is mice following CUS, and the third bar is mice following CUS and with exogenous allopregnanolone treatment.
Decreased expression of 5α-reductase 1 and 2 is associated with chronic stress, a major risk factor for depression. […] Reduced endogenous neurosteroids impaired the affective state.

women with PPD = conditions: zuranolone treatment; cited from earlier work

## CC(=O)[C@H]1CC[C@H]2[C@@H]3CC[C@H]4C[C@H](O)CC[C@]4(C)[C@H]3CC[C@]12C [allopregnanolone]
[1]
  behavioral state of the mice following CUS (learned helplessness, social interaction, anhedonia): restored the behavioral state

## C[C@@]1(O)CC[C@H]2[C@H](CC[C@@H]3[C@@H]2CC[C@]2(C)[C@@H](C(=O)Cn4cc(C#N)cn4)CC[C@@H]32)C1 [zuranolone]
Women with PPD
  women with PPD exhibiting a rapid antidepressant response: 57%
